Like-named read-outs stand apart in the source and are kept apart here. One block for each compound: values may come before it.
Columns and labels:
[1] = tested on: glycine receptor channels; experiment: whole-cell current recording, cell-flow with mixer (effect of the caged compound or photoproduct on glycine receptor channels); assay type: cell-based, mouse; details: for effect on glycine receptors or their response to glycine: mouse cerebral cortical neurons, pH 7.1
Protocol: (§1) Whole-cell current recording was performed as follows. The preparation of embryonic mouse cortical cells was as described by Geetha et al. (Biochemistry 31:5488-5499 (1992)). The extracellular recording buffer was 145 mM NaCl, 1.8 MM MgCl2, 1 mM CaCl2 and 10 mM Hepes (pH 7.4) and the intracellular buffer was 145 mM CsCl, 1 mM CaCl2, 10 mM EGTA [ethyleneglycol-bis-(beta-aminoethyl ether) N,N,N',N'-tetraacetic acid] and 10 mM Hepes (pH 7.2) The flow method used to equilibrate receptors on the surface of a single cell with ligands within 10 ms has been described by Udgaonkar et al (Proc. Natl. Acad. Sci. USA, 84:8758-8762 (1987)). The whole-cell current responses were determined in mouse cortical neurons, pH […], room temperature (22° C.). Caged glycine solutions at pH 4.0 in extracellular buffer but containing only 5 mM Hepes were mixed in 1:1 proportions with extracellular recording buffer containing 20 mM Hepes at pH 7.4 using a low volume T-tube mixer before the solutions entered the U-tube that delivered the solution stream at pH 7.1 to the cell at a linear flow rate of 0.5 cm s^-1. The whole-cell current due to opening of glycine receptor channels was recorded using the technique of Hamill et al. (Pflugers Arch, 391:85-100 (1981)). All other details of the cell-flow technique, and the combination of the cell-flow technique with the laser-pulse photolysis technique in which the whole-cell current is measured after photolysis of caged neurotransmitter, were as described by Matsubara et al (Biochemistry, 31:5507-5514 (1992)). Hydrolysis of the caged glycine before it was applied to a cell was prevented by the mixer strategy.
Specifically, the caged glycine solution with and without free glycine at pH 4.0 was rapidly mixed with extracellular buffer to produce a solution of pH 7.1 before flowing it over the cell. A control solution of 85 μM free glycine (170 μM glycine in extracellular buffer mixed with pH 4 buffer used to stabilize the ester) is shown by the solid trace in FIG. 3. […] Identical current responses were obtained when 170 μM glycine in pH 7.4 buffer was mixed with pH 4 buffer when the solutions were altemately applied from the two different supply lines of the mixer (data not shown).

[2] = laser-pulse photolysis, transient absorbance (photolysis speed and product quantum yield); assay type: physicochemical
Protocol: (§2) To evaluate the photolysis characteristics of the 2-methoxy-5-nitro glycine ester of Example I, laser pulse photolysis was performed and the results thereof are shown in FIG. 2 by the rapid absorbance jump produced by the photolysis of the ester. The light source used to initiate the photolysis reaction was a Lumonics TE861M excimer laser. The lasing medium was either 2% N2 in helium, which produced a primary energy of 6 mJ at 337 nm with a 4 ns pulse width, or a XeCl mix that produced 70 rnJ at 308 nm in 6 ns pulses. For cell photolysis, the 337 nm light was delivered to the microscope stage for use in whole-cell recording measurements with a 300 μm core optical fiber (FiberGuide Industries); 10% of the primary energy was typically coupled through the fiber to the cell preparation. Rapid absorbance changes of caged compound solutions were measured with a transient absorbance spectrophotometer in which 308 nm light from the primary output of the laser was focussed into a 2×2 mm quartz cuvet and the absorbance changes produced were monitored at right angles to the laser beam with a single beam transient spectrophotometer whose signal transfer parameters effectively produced 500 kHz filtering of the rapid absorbance jump. The photocurrent was amplified with a Thorn EMI model Al preamplifier, which also acted as a low pass filter with cutoff dependent on the amplification selected; the cutoff frequencies were between 50 KHz and 50 MHz. The rapid absorbance jump produced in the caged ester solution by single laser flashes could be digitized at up to 2 MHz with a digital oscilloscope and in each case the preamplifier filtering was matched to the digitization rate of the data collection. Measurements of the pulsed UV light energy for quantum yield determinations were made with a Gentec ED200 calibrated thermopile.
Absorbance measurements of the fast jump were made over the range 350 to 450 nm and the resulting profile matched the absorbance spectrum of the expected 2-methoxy-5-nitrophenol. Measurements of triplet quenching in the reaction of 2-methoxy-5-nitrophenyl acetate by Kuzmic et al. (supra) indicate that the lifetime of the photohydrolysis reaction is 0.15 μs. The maximum time resolution of the transient absorbance measurements in our study is 0.5 μs.
The product quantum yield from photolysis of the caged glycine was estimated by comparison to the photolysis of 2-methoxy-5-nitrophenyl acetate, which was used as an actinometric standard. A quantum yield of 0.22 was found for a 1 mM solution of 2-methoxy-5-nitrophenyl acetate in 100 mM phosphate buffer at pH 7.0 that also contained 20% acetonitrile to substituted for caged glycine.

[3] = cited from earlier work
acetylcholine receptor = details: Milburn et al.; cited from earlier work
[4] = spontaneous hydrolysis in buffer followed spectrophotometrically; assay type: physicochemical
Protocol: A 1.1 mM solution of the caged glycine of Example I was prepared in extracellular recording buffer at pH 7.1. […] The caged glycine ester was rapidly dissolved in buffers to produce approximately 800 μM solutions of the caged compound and immediately transferred to a 2×2 cuvette in a Hewlett Packard model 8452A diode array spectrophotometer set up to collect spectra at timed intervals. The initial rates of the hydrolysis reaction were obtained from absorbance measurements at 310, 360 and 384 nm after subtraction of the absorbance of the completely hydrolyzed solution. The spectra of the fully hydrolyzed solutions were identical in all cases to reference spectra of 2-methoxy-5-nitrophenol at the different pH values. The upper trace at 310 nm represents the spectrum of the compound before hydrolysis. The lower trace at 310 nm corresponds to the fully hydrolyzed material and matches the spectrum of 2-methoxy-5-nitrophenol at pH 7.0. The spectra were acquired at 0, 1, 2, 3, 4, 6, 8, 11 and 60 min after the initial rapid dissolution in buffer. All measurements were performed at room temperature (22°-24° C.).

[5] = tested on: glycine receptor channels; experiment: whole-cell current after laser-pulse photolysis of caged glycine (cell-flow laser-pulse photolysis); assay type: cell-based, mouse; details: for rate of rising phase of whole-cell current: 700 μM caged compound, pH 7.1
Protocol: as §2
as §1, with “strategy. […]” for “strategy.”

SMILES: COc1ccc([N+](=O)[O-])cc1O [2-methoxy-5-nitrophenol]
- effect on glycine receptors or their response to glycine [1]: Neither the caged compound nor the 2-methoxy-5-nitrophenol photolysis product affected the glycine receptors or modified their response to glycine

- quantum yield ([2]; 1 mM solution in 100 mM phosphate buffer at pH 7.0 with 20% acetonitrile, actinometric standard): 0.22
SMILES: COc1ccc([N+](=O)[O-])cc1OC(C)=O [2-methoxy-5-nitrophenyl acetate, reference compound]
- lifetime of the photohydrolysis reaction ([3]; triplet quenching measurements, Kuzmic et al.): 0.15 μs

SMILES: O=C(O)CNC(C(=O)O)c1ccccc1[N+](=O)[O-] (stereo not shown) [N-(.varies.-carboxy-2-nitrobenzyl)glycine]
- product quantum yield ([3]; Billington et al.): 0.02
- photolysis time constant τ ([3]; pH 7.5, Billington et al.): 1.6 ms

SMILES: C[N+](C)(C)CCOC(=O)NC(C(=O)O)c1ccccc1[N+](=O)[O-] (stereo not shown) [caged carbamoylcholine]
- time to liberate carbamoylcholine by a laser pulse ([3]; laser pulse, Milburn et al.): ≤ 120 μs
- photolysis t1/2 ([3]; photolysis to carbamoylcholine, Milburn et al.): 40 μs
- biological activity before photolysis (acetylcholine receptor): biologically inert

- product quantum yield from photolysis ([2]; caged glycine, estimated by comparison to 2-methoxy-5-nitrophenyl acetate as actinometric standard): 0.2
- half-life ([4]; buffer, pH 4, pH 4.0, read-out: time constant τ for hydrolysis (converted)): ~3 h
- half-life ([4]; hepes buffer, pH 7.1, pH 7.1 (neutral pH, Hepes buffered solution), room temperature (22-24° C.), absorbance at 310 nm, read-out: time constant of spontaneous hydrolysis): 0.102 h
- time thawed pH 4 solution could be used without detectable glycine currents in the preincubation baseline ([5]; frozen aliquots of freshly prepared caged glycine pH 4 solution, thawed before application with the mixer): up to 20 min
SMILES: COc1ccc([N+](=O)[O-])cc1OC(=O)CN [caged glycine, 2-Methoxy-5-nitrophenyl glycine ester]
- speed of absorbance jump on photolysis with 337 nm light ([2]; 337 nm versus 308 nm light, excimer laser): as fast as the one induced by 308 nm light
- time within which caged glycine is photolyzed / converted to products ([2]; laser pulse, absorbance change at 380 nm, b60: 308 or 337 nm): ≤ 3 μs
- effect of caged glycine on current response to free glycine ([1]; 170 μM glycine mixed 1:1 with 1.1 mM caged glycine ester in pH 4 buffer, versus control 85 μM free glycine): An identical response was produced
- activation of whole cell current by caged glycine ([1]; caged glycine at pH 4.0 mixed with external buffer, final pH 7.1, -40 mV, 22° C., mouse cortical neurons): did not activate any whole cell current
- effect on glycine receptors or their response to glycine [1]: Neither the caged compound nor the 2-methoxy-5-nitrophenol photolysis product affected the glycine receptors or modified their response to glycine
- inhibition or activation by caged glycine ([1]; mouse cortical neurons, pH 7.1, -40 mV): no observable inhibition or activation
- opening of glycine receptor channels on irradiation ([5]; laser pulse at 337 nm, mouse cerebral cortical neurons equilibrated with caged glycine): glycine receptor channels were opened
- rate of rising phase of whole-cell current ([5]; lowest trace, 10 μm (so in the source) glycine released by photolysis): 42 s⁻¹
- rate of rising phase of whole-cell current ([5]; middle trace, 18 μM glycine released by photolysis): 40 s⁻¹
- rate of rising phase of whole-cell current ([5]; upper trace, 35 μM free glycine released by photolysis): 54 s⁻¹

Source: US5587509A, “Caged caboxyl compounds and use thereof” (Cornell Research Foundation, Inc., priority 1995, dated 1996)
